Measurements published in US20050048067A1, “Peptides capable of modulating immune response” (priority 2001, published 2005).
Like-named read-outs stand apart in the source and are kept apart here.

Key:
PHA-stimulated PBMC = test: Radioactive proliferation assay, incorporation of 3H-thymidine, TIRC7-peptides; type: cell-based, human; conditions: PHA stimulation, 48 h, 3H-thymidine incorporation
Description: PBMC of healthy donors were isolated according to the Ficoll-Paque density centrifugation protocol. Samples of 50000 PBMC's/well were stimulated with PHA (1 μg/ml) and incubated for 48 h at 5% CO2, 37° C. in presence of TIRC7-peptides (see FIG. 4(B)) and controls (BSA) in a total volume of […]. Samples were run in triplicates on 96 well-microtiter-plates (MTP's). After 48 h 0.5 μCi ^3H-thymidine per well were added and the cells were reincubated for additional 18 h. Cells were harvested and lysed using a cell harvester and collected on nitrocellulose-filter-MTP's. Plates were dried at room temperature for 3 h. To enhance the radioactive signal produced by the samples a scintillation fluid was added and counts per minute were measured with a beta counter.

activated T-cells = conditions: alloactivation in mixed lymphocyte culture (MLR) or mitogens, Utku et al., Immunity 1998, cited from earlier work

Molecule	inhibition of proliferation of PHA-stimulated PBMC (PHA-stimulated PBMC; FIG. 5)	inhibition of proliferation of PHA-stimulated PBMC (PHA-stimulated PBMC; FIG. 5, listed as SEQ ID NO: 11)	suppression of proliferation of T-cells (activated T-cells)	suppression of proliferation of T-cells (activated T-cells; listed as protein TIRC7)
P4: TIRC7-derived peptide (FIG. 4(B)), the one of 6 without significant inhibition of proliferation (VEFQNKFYSGTGYK; listed as Homo sapiens)	except peptide P4 all TIRC7-peptides inhibited proliferation	weaker if any activity	–	–
TIRC7 protein: in vitro translated T-cell immune response cDNA 7 (TIRC7) protein (protein, UniProt Q13488 1-830, looked up, in vitro translated, in vitro translated T-cell immune response cDNA 7 (TIRC7) protein) V-type proton ATPase 116 kDa …: MGSMFRSEEVALVQLFLPTAAAYTCVSRLGELGLVEFRDLNASVSAFQRRFVVDVRRCEELEKTFTFLQEEVRRAGLVLPPPKGRLPAPPPRDLLRIQEETERLAQELRDVRGNQQALRAQLHQLQLHAAVLRQGHEPQLAAAHTDGASERTPLLQAPGGPHQDLRVNFVAGAVEPHKAPALERLLWRACRGFLIASFRELEQPLEHPVTGEPATWMTFLISYWGEQIGQKIRKITDCFHCHVFPFLQQEEARLGALQQLQQQSQELQEVLGETERFLSQVLGRVLQLLPPGQVQVHKMKAVYLALNQCSVSTTHKCLIAEAWCSVRDLPALQEALRDSSMEEGVSAVAHRIPCRDMPPTLIRTNRFTASFQGIVDAYGVGRYQEVNPAPYTIITFPFLFAVMFGDVGHGLLMFLFALAMVLAENRPAVKAAQNEIWQTFFRGRYLLLLMGLFSIYTGFIYNECFSRATSIFPSGWSVAAMANQSGWSDAFLAQHTMLTLDPNVTGVFLGPYPFGIDPIWSLAANHLSFLNSFKMKMSVILGVVHMAFGVVLGVFNHVHFGQRHRLLLETLPELTFLLGLFGYLVFLVIYKWLCVWAARAASAPSILIHFINMFLFSHSPSNRLLYPRQEVVQATLVVLALAMVPILLLGTPLHLLHRHRRRLRRRPADRQEENKAGLLDLPDASVNGWSSDEEKAGGLDDEEEAELVPSEVLMHQAIHTIEFCLGCVSNTASYLRLWALSLAHAQLSEVLWAMVMRIGLGLGREVGVAAVVLVPIFAAFAVMTVAILLVMEGLSAFLHALRLHWVEFQNKFYSGTGYKLSPFTFAATDD	–	–	efficiently suppress in a dose dependent manner	signifincantly suppressed
